Where two headings read alike, the source gives them in different places.
What was measured:
[1] = Hydrolysis in aqueous phosphate buffer, HPLC; assay type: physicochemical
Description: See Example 16. […] The DMSO was present to increase solubility.
Second, the kinetics of hydrolysis were measured in pH 6.0 phosphate buffer.
A 960 μL solution of pH 7.3 phosphate buffer was heated to 37° C. […] No change in the chromatography was observed if pH, 7.3 phosphate buffer was used as the eluent in place of pH 7.4 TEAA buffer.

[2] = Hydrolysis in fetal bovine serum, HPLC; assay type: in vitro ADME; settings: pH 8.1, in serum at 37° C., read-out: half-life of the equilibrium mixture with intermediate B with respect to formation of intermediates C and D
[3] = tested on: PC-3; assay: Prostate cancer cell cytotoxicity, crystal violet assay, PC-3; assay type: cell-based, human; settings: 3 h drug
Description: (§1) Toxicity to the three prostate cancer cell lines, LNCaP, DU-145, and PC-3 were measured in two different media, RPMI-1640 and DMEM (Dulbecco's Modified Eagle Medium), both supplemented with 10% fetal bovine serum.
(§2) Cell lines were maintained in vitro in RPMI 1640 media or DMEM, each supplemented with 10% fetal bovine serum, 2 mM L-glutamine, 10 mM HEPES buffer, penicillin (100 units/mL) and streptomycin (100 μg/mL).
(§3) Cells were dissociated with trypsin/EDTA, counted, and suspended in growth media (RPMI or DMEM) to a concentration of 5.6×10^3 cells/mL. Cell suspensions were dispensed in 180 μL aliquots into 96-well tissue culture plates. […] Each 100× solution was diluted 10× in growth media (RPMI or DMEM), and a 20 μL aliquot of the resulting 10× solution was immediately (<10s) added to-the appropriate lane. Additionally, one lane was treated with 20 μL of 10% DMSO in growth media (no drug) and one lane was treated with 200 μL of 1.5 M Tris buffer (no cells). The cells were incubated with the drugs for 3 h at 37° C. The drug solutions were then removed and replaced with 200 μL of fresh media. The cells were incubated for 4 days (7 days for PC-3 cells in DMEM) at 37° C. in a humidified atmosphere of 5% CO2 and 95% air. Cell survival was determined using a crystal violet assay as described earlier (Fenick, D. J. et al (1997) J. Med. Chem. 40: 2452-2461).

[4] = amorphous material
[5] = tested on: DU-145; assay: Prostate cancer cell cytotoxicity, crystal violet assay, DU-145; assay type: cell-based, human; settings: 3 h drug, 4 days growth
Description: as §1, §2, §3

[6] = tested on: MCF-7/ADR cells; assay: Cytotoxicity versus time of drug hydrolysis before addition to cells; assay type: cell-based, human; settings: 1 μmol equiv./L, 25° C., serum-free media containing 10% DMSO, MCF-7/ADR survival
Description: The results of these experiments are illustrated in FIG. 2. […] However, the dimeric formaldehyde conjugate of daunorubicin completely lost its effectiveness within 25 min of standing in an aqueous solution. […] This biphasic curve is probably due to the decay mechanism of the dimeric formaldehyde conjugate of doxorubicin to doxorubicin in aqueous solution.
The drug solution was diluted 1:100 with DMSO, then 1:10 in serum-free RPMI media 1640. A volume of 20 μL of the resulting 0.5 μM (1 μmol equiv/L) drug solution was immediately added to the t=0 min lane. The remaining lanes were treated at 5 min intervals with 20 μL of the remaining drug solution, which was held at 25° C. between additions. Additionally, one lane was treated with 20 μL/well of serum-free RPMI media containing 10% DMSO (no drug) and one lane replaced with 200 μL/well of 1.5 M Tris buffer (no cells). Each lane was incubated at 37° C. for 3 h.

[7] = tested on: LNCaP; assay: Prostate cancer cell cytotoxicity, crystal violet assay, LNCaP; assay type: cell-based, human; settings: 3 h drug, 4 days growth
Description: as §1, §2, §3

With COc1cccc2c1C(=O)c1c(O)c3c(c(O)c1C2=O)CC(O)(C(=O)CO)CC3OC1CC2C(OCN3CN2COC2C(C)OC(OC4C[C@](O)(C(=O)CO)Cc5c(O)c6c(c(O)c54)C(=O)c4c(OC)cccc4C6=O)CC23)C(C)O1 (stereo partly drawn) [EPIF] the half-life at 25 µM ([1]; pH 6.0 phosphate buffer, 37° C.) was 0.25 h, the “time the equilibrium mixture is stable” value ([1]; pH 7.3, at equilibrium) was “at least 2 days” and the half-life ([1]; pH 7.3 phosphate buffer, 37° C., read-out: half-life of hydrolysis, forward reaction (A⇄B) to C+D (converted)) was roughly 2 h. The half-life at 25 µM [2] was no less than 2 h.
For COc1cccc2c1C(=O)c1c(O)c3c(c(O)c1C2=O)C[C@@](O)(C(C)=O)C[C@@H]3O[C@H]1C[C@H]2[C@H](OCN2CN2CO[C@@H]3[C@H](C)O[C@@H](O[C@H]4C[C@](O)(C(C)=O)Cc5c(O)c6c(c(O)c54)C(=O)c4c(OC)cccc4C6=O)C[C@@H]32)[C@H](C)O1 [DAUNF, bis(3′-N-(3′-N,4′-O-methylenedaunorubicinyl))methane], the IC50 ([3]; DMEM with 10% fetal bovine serum, 7 days growth, read-out: IC50 Values, PC-3/DMEM (converted)) was 0.5 nM, the IC50 ([3]; RPMI-1640 with 10% fetal bovine serum, 4 days growth, read-out: IC50 Values, PC-3/RPMI-1640 (converted)) was 2.5 nM and the “concentration to which the material dissolved instantly in dimethylsulfoxide” value [4] was no less than 20000 µg/mL. The IC50 ([5]; DMEM with 10% fetal bovine serum, read-out: IC50 Values, DU-145/DMEM (converted)) was 4 nM, the IC50 ([5]; RPMI-1640 with 10% fetal bovine serum, read-out: IC50 Values, DU-145/RPMI-1640 (converted)) was 5 nM and the “time of standing in an aqueous solution until effectiveness completely lost” value [6] was no more than 25 min. It also gave an IC50 ([7]; DMEM with 10% fetal bovine serum, read-out: IC50 Values, LNCaP/DMEM (converted)) of 1.5 nM and an IC50 ([7]; RPMI-1640 with 10% fetal bovine serum, read-out: IC50 Values, LNCaP/RPMI-1640 (converted)) of 3 nM.

Reference: US6677309B1, “Anti-cancer drug aldehyde conjugate drugs with enhanced cytotoxicity compounds, compositions and methods” (University Technology Corporation, priority 1997, dated 2004)
